In PubChem BioAssay AID1918937 (Molecular Pharmacology Branch, DTP, NCI, 2023):
pIC50: −log10 of the molar value.

Tested on: 521955-158-R2-J5-PDC complex spheroid viability
Assay: Anticancer human tumor 521955-158-R2-J5-PDC patient-derived pancreatic carcinoma cell line growth inhibition
Details: for pIC50: curve of first compound; for viability, T/C: stronger effect = lower value
Procedure, shortened: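 Complex spheroids of tumor cells with HUVEC and human MSCs, exposed to iadademstat combined with other agents. Each agent tested in half-log steps from near clinical Cmax (else 10 microM top), DMSO ≤0.25%.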

[1] = second compound 0.1 µM, first compound 0.00949 µM
[2] = second compound 0.1 µM, first compound 0.03 µM
[3] = second compound 0.1 µM, first compound 0.0949 µM
[4] = second compound 0.1 µM, first compound 0.3 µM
[5] = second compound 0.1 µM, first compound 0.949 µM
[6] = second compound 0.1 µM, first compound 3 µM
[7] = second compound 0.316 µM, first compound 0.00949 µM
[8] = second compound 0.316 µM, first compound 0.03 µM
[9] = second compound 0.316 µM, first compound 0.0949 µM
[10] = second compound 0.316 µM, first compound 0.3 µM
[11] = second compound 0.316 µM, first compound 0.949 µM
[12] = second compound 0.316 µM, first compound 3 µM
[13] = second compound 1 µM, first compound 0.00949 µM
[14] = second compound 1 µM, first compound 0.03 µM
[15] = second compound 1 µM, first compound 0.0949 µM
[16] = second compound 1 µM, first compound 0.3 µM
[17] = second compound 1 µM, first compound 0.949 µM
[18] = second compound 1 µM, first compound 3 µM
[19] = second compound 3.16 µM, first compound 0.00949 µM
[20] = second compound 3.16 µM, first compound 0.03 µM
[21] = second compound 3.16 µM, first compound 0.0949 µM
[22] = second compound 3.16 µM, first compound 0.3 µM
[23] = second compound 3.16 µM, first compound 0.949 µM
[24] = second compound 3.16 µM, first compound 3 µM
[25] = second compound 10 µM, first compound 0.00949 µM
[26] = second compound 10 µM, first compound 0.03 µM
[27] = second compound 10 µM, first compound 0.0949 µM
[28] = second compound 10 µM, first compound 0.3 µM
[29] = second compound 10 µM, first compound 0.949 µM
[30] = second compound 10 µM, first compound 3 µM
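Also: spheroids exposed to agents for seven days.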
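For viability, T/C in this document: percent of DMSO vehicle control luminescence viability.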

## CC(C)CC(NC(=O)C(Cc1ccccc1)NC(=O)c1cnccn1)B(O)O (stereo not given) + NC1CC1c1ccc(-c2cccc(O)c2)cc1
Second compound 0.1 µM
  pIC50: 9.27
Second compound 0.316 µM
  pIC50: 9.30
Second compound 1 µM
  pIC50: 9.29
Second compound 3.16 µM
  pIC50: 9.34
Second compound 10 µM
  pIC50: 9.47
Second compound 0.1 µM, first compound 0.000316 µM
  viability, T/C: 92.2%
Second compound 0.1 µM, first compound 0.001 µM
  viability, T/C: 0.66%
Second compound 0.1 µM, first compound 0.00316 µM
  viability, T/C: 0.11%
Second compound 0.1 µM, first compound 0.01 µM
  viability, T/C: 0.08%
Second compound 0.1 µM, first compound 0.0316 µM
  viability, T/C: 0.09%
Second compound 0.1 µM, first compound 0.1 µM
  viability, T/C: 0.26%
Second compound 0.316 µM, first compound 0.000316 µM
  viability, T/C: 83.8%
Second compound 0.316 µM, first compound 0.001 µM
  viability, T/C: 0.44%
Second compound 0.316 µM, first compound 0.00316 µM
  viability, T/C: 0.17%
Second compound 0.316 µM, first compound 0.01 µM
  viability, T/C: 0.18%
Second compound 0.316 µM, first compound 0.0316 µM
  viability, T/C: 0.1%
Second compound 0.316 µM, first compound 0.1 µM
  viability, T/C: 0.3%
Second compound 1 µM, first compound 0.000316 µM
  viability, T/C: 86.6%
Second compound 1 µM, first compound 0.001 µM
  viability, T/C: 0.35%
Second compound 1 µM, first compound 0.00316 µM
  viability, T/C: 0.24%
Second compound 1 µM, first compound 0.01 µM
  viability, T/C: 0.04%
Second compound 1 µM, first compound 0.0316 µM
  viability, T/C: 0.06%
Second compound 1 µM, first compound 0.1 µM
  viability, T/C: 0.28%
Second compound 3.16 µM, first compound 0.000316 µM
  viability, T/C: 74.4%
Second compound 3.16 µM, first compound 0.001 µM
  viability, T/C: 0.52%
Second compound 3.16 µM, first compound 0.00316 µM
  viability, T/C: 0.15%
Second compound 3.16 µM, first compound 0.01 µM
  viability, T/C: 0.08%
Second compound 3.16 µM, first compound 0.0316 µM
  viability, T/C: 0.07%
Second compound 3.16 µM, first compound 0.1 µM
  viability, T/C: 0.2%
Second compound 10 µM, first compound 0.000316 µM
  viability, T/C: 52.8%
Second compound 10 µM, first compound 0.001 µM
  viability, T/C: 0.4%
Second compound 10 µM, first compound 0.00316 µM
  viability, T/C: 0.22%
Second compound 10 µM, first compound 0.01 µM
  viability, T/C: 2.1%
Second compound 10 µM, first compound 0.0316 µM
  viability, T/C: 0.17%
Second compound 10 µM, first compound 0.1 µM
  viability, T/C: 1.31%

## O=C(C=Cc1cccc(S(=O)(=O)Nc2ccccc2)c1)NO + NC1CCC(NC2CC2c2ccccc2)CC1
Second compound 0.1 µM
  pIC50: < 5.52
Second compound 0.316 µM
  pIC50: < 5.52
Second compound 1 µM
  pIC50: < 5.52
Second compound 3.16 µM
  pIC50: 6.53
Second compound 10 µM
  pIC50: 6.05
[1]
  viability, T/C: 106%
[2]
  viability, T/C: 112%
[3]
  viability, T/C: 88.3%
[4]
  viability, T/C: 43.7%
[5]
  viability, T/C: 16.5%
[6]
  viability, T/C: 104%
[7]
  viability, T/C: 112%
[8]
  viability, T/C: 104%
[9]
  viability, T/C: 90.1%
[10]
  viability, T/C: 46.7%
[11]
  viability, T/C: 11.5%
[12]
  viability, T/C: 98.8%
[13]
  viability, T/C: 96.9%
[14]
  viability, T/C: 97.3%
[15]
  viability, T/C: 81.4%
[16]
  viability, T/C: 53%
[17]
  viability, T/C: 13%
[18]
  viability, T/C: 88%
[19]
  viability, T/C: 99.4%
[20]
  viability, T/C: 102%
[21]
  viability, T/C: 84.6%
[22]
  viability, T/C: 50.1%
[23]
  viability, T/C: 6.88%
[24]
  viability, T/C: 89.7%
[25]
  viability, T/C: 99.9%
[26]
  viability, T/C: 97.2%
[27]
  viability, T/C: 79.5%
[28]
  viability, T/C: 51.5%
[29]
  viability, T/C: 11.2%
[30]
  viability, T/C: 88%

## Nc1ccccc1NC(=O)c1ccc(CNC(=O)OCc2cccnc2)cc1 + NC1CC1c1ccc(-c2cccc(O)c2)cc1
Second compound 0.1 µM
  pIC50: 6.37
Second compound 0.316 µM
  pIC50: 6.41
Second compound 1 µM
  pIC50: 6.35
Second compound 3.16 µM
  pIC50: 6.34
Second compound 10 µM
  pIC50: 6.39
[1]
  viability, T/C: 89.2%
[2]
  viability, T/C: 101%
[3]
  viability, T/C: 83.6%
[4]
  viability, T/C: 62.8%
[5]
  viability, T/C: 22.8%
[6]
  viability, T/C: 0.44%
[7]
  viability, T/C: 83.7%
[8]
  viability, T/C: 88.8%
[9]
  viability, T/C: 77.9%
[10]
  viability, T/C: 59.9%
[11]
  viability, T/C: 19.9%
[12]
  viability, T/C: 0.28%
[13]
  viability, T/C: 90.4%
[14]
  viability, T/C: 88.5%
[15]
  viability, T/C: 77.1%
[16]
  viability, T/C: 67.8%
[17]
  viability, T/C: 19.9%
[18]
  viability, T/C: 1.47%
[19]
  viability, T/C: 84.2%
[20]
  viability, T/C: 89.1%
[21]
  viability, T/C: 82.9%
[22]
  viability, T/C: 70%
[23]
  viability, T/C: 14.2%
[24]
  viability, T/C: 0.23%
[25]
  viability, T/C: 90.3%
[26]
  viability, T/C: 85.1%
[27]
  viability, T/C: 83.7%
[28]
  viability, T/C: 65.3%
[29]
  viability, T/C: 5.98%
[30]
  viability, T/C: 0.28%
